Laboratory results reported in patent US8569327B2, “Phenanthroindolizidine derivative and NFκB inhibitor containing same as active ingredient” (Kabushiki Kaisha Yakult Honsha, priority 2008, dated 2013).

Tests used:
[1] = test system: human non-small cell lung cancer A549 cells; assay: Inhibitory action on the proliferation of A549 cells; type: cell-based; conditions: 96 hours, TetraColor ONE
Method: (§1) The action of the phenanthroindolizidine alkaloid compound of the present invention on the proliferation of human colon cancer SW480 cells, HT-29 cells, and human non-small cell lung cancer A549 cells was studied. The SW480 cells were suspended in a 10% FBS/RPMI1640 and then seeded in a 96-well microplate, followed by culturing in 5% CO2 at 37° C. (2000 cells/well). The A549 cells and the HT-29 cells were each suspended in a DMEM medium containing 10% FBS, 100 U/mL penicillin, and 100 μg/mL streptomycin (10% FBS/DMEM) and a DMEM F-12 HAM medium containing 10% FBS, 100 U/mL penicillin, and 100 μg/mL streptomycin (10% FBS/DMEM F12 HAM), and then seeded in 96-well microplates, followed by culturing in 5% CO2 at 37° C. (1000 cells/well). After an overnight culture, the compound of the present invention was added, followed by further culturing for 48 hours (SW480 cells) and 96 hours (A549 cells and HT-29 cells). After culturing, the number of viable cells was counted using TetraColor ONE (Seikagaku Corporation) in accordance with the attached operating procedure. The results were expressed as the concentration of a test compound needed for 50% inhibition of the proliferation of the cells (IC50).

[2] = test system: human colon cancer SW480 cells; assay: Inhibitory action on the proliferation of SW480 cells; type: cell-based; conditions: 48 hours, TetraColor ONE
Method: as §1

[3] = test system: human colon cancer HT-29 cells; assay: Inhibitory action on the proliferation of HT-29 cells; type: cell-based; conditions: 96 hours, TetraColor ONE
Method: as §1

SV40 promoter = SV40 promoter activity, luciferase assay in SW480/SV40-Luc cells; type: cell-based, human; conditions: for SV40 promoter inhibitory activity IC50: SW480/SV40-Luc cells, luciferase
Excerpt: (§2) The action of the phenanthroindolizidine alkaloid compound of the present invention on the NFκB activity was studied using a luciferase assay. Human colon cancer SW480 cells were transfected with pNFκB-Luc Plasmid (Stratagene), which is a reporter vector in which a five-time tandem repeat of the NFκB responsive element (NRE) is integrated into the upstream of the luciferase gene, using Lipofectamine 2000 (Invitrogen Corporation) in accordance with the attached operating procedure. Subsequently, the cells were cultured in an RPMI1640 medium containing 10% FBS, 100 U/mL penicillin, 100 μg/mL streptomycin, and 0.5 mg/mL G418 to produce SW480 cells having the luciferase gene, the expression of which is regulated by NRE, stably introduced therein (SW480/NRE-Luc cells). Likewise, SW480 cells were transfected with pGL3-Control Vector (Promega Corporation), which is a reporter vector in which the SV40 promoter is integrated into the upstream of the luciferase gene, to produce SW480 cells having the luciferase gene, the expression of which is regulated by the SV40 promoter, stably introduced therein (SW480/SV40-Luc cells). The SW480/NRE-Luc cells or the SW480/SV40-Luc cells were suspended in an RPMI1640 medium containing 10% FBS, 100 U/mL penicillin, and 100 μg/mL streptomycin (10% FBS/RPMI1640), and then seeded in a 96-well microplate, followed by culturing under conditions of 5% CO2 and at 37° C. (5000 cells/well). After an overnight culture, the compound of the present invention was added, followed by culturing for one hour. Further, 50 ng/mL TNFα (Sigma-Aldrich Corporation) was added, followed by culturing for four hours. Subsequently, a Steady-Glo Luciferase Assay reagent (Promega Corporation) was added, and the luminescent intensity was detected by SpectraMax M5e (Molecular Devices, Inc.) to measure the intracellular luciferase activity. It is to be noted that the action of the compound of the present invention on the NFκB activity or the SV40 promoter activity was shown as IC50 values (the concentration of a test compound needed for 50% inhibition of the induction of the luciferase expression).

NFκB = assay: Inhibitory action on the NFκB activity, luciferase assay in SW480/NRE-Luc cells; type: cell-based, human; conditions: for NFκB inhibitory activity IC50: SW480/NRE-Luc cells, compound 1 h then 50 ng/mL TNFα 4 h, luciferase
Excerpt: as §2

COc1cc2c3c(c4ccc(NC(=O)OCc5ccccc5)cc4c2cc1OC)[C@H](O)[C@@H]1CCCN1C3.Cl [Compound 26, ((12aS,13S)-13-hydroxy-6,7-dimethoxy-9,10,11,12,12a,13-hexahydro-9a-aza-cyclopenta[b]triphenylene-3-yl)-carbamic acid benzyl ester hydrochloride]
IC50 ([1]; Homo sapiens, A549): 8.8 ng/mL
IC50 ([2]; Homo sapiens, SW480): 37.3 ng/mL
IC50 ([3]; Homo sapiens, HT-29): 6.7 ng/mL
IC50 (SV40 promoter; Homo sapiens, SW480, read-out: SV40 promoter inhibitory activity IC50): > 1000 ng/mL
IC50 (NFκB; Homo sapiens, SW480, read-out: NFκB inhibitory activity IC50): 19.9 ng/mL

COc1cc2c3c(c4ccc(OC(=O)C(C)C)cc4c2cc1OC)[C@H](O)[C@@H]1CCCN1C3.Cl [Compound 9, isobutyric acid(12aS,13S)-13-hydroxy-6,7-dimethoxy-9,10,11,12,12a,13-hexahydro-9a-aza-cyclopenta[b]triphenylene-3-yl ester hydrochloride]
A549 proliferation inhibitory action IC50 [1]: 0.57 ng/mL
SW480 proliferation inhibitory action IC50 [2]: 0.36 ng/mL
HT-29 proliferation inhibitory action IC50 [3]: 0.38 ng/mL
SV40 promoter inhibitory activity IC50 (SV40 promoter): >100 ng/mL
NFκB inhibitory activity IC50 (NFκB): 0.26 ng/mL

COc1cc2c3c(c4ccc(OC(=O)C(C)(C)C)cc4c2cc1OC)C[C@@H]1CCCN1C3.CS(=O)(=O)O [Compound 48, 2,2-dimethyl-propionic acid(S)-6,7-dimethoxy-9,10,11,12,12a,13-hexahydro-9a-aza-cyclopenta[b]triphenylene-3-yl ester methanesulfonate]
A549 proliferation inhibitory action IC50 [1]: 1.2 ng/mL
SW480 proliferation inhibitory action IC50 [2]: 0.58 ng/mL
HT-29 proliferation inhibitory action IC50 [3]: 2.0 ng/mL
SV40 promoter inhibitory activity IC50 (SV40 promoter): >1000 ng/mL
NFκB inhibitory activity IC50 (NFκB): 0.40 ng/mL

COc1cc2c3c(c4ccc(OC(=O)C(C)(C)C)cc4c2cc1OC)[C@H](O)[C@@H]1CCCN1C3.Cl [Compound 10, 2,2-dimethyl-propionic acid(12aS,13S)-13-hydroxy-6,7-dimethoxy-9,10,11,12,12a,13-hexahydro-9a-aza-cyclopenta[b]triphenylene-3-yl ester hydrochloride]
A549 proliferation inhibitory action IC50 [1]: 0.14 ng/mL
SW480 proliferation inhibitory action IC50 [2]: 0.73 ng/mL
HT-29 proliferation inhibitory action IC50 [3]: 0.47 ng/mL
SV40 promoter inhibitory activity IC50 (SV40 promoter): >100 ng/mL
NFκB inhibitory activity IC50 (NFκB): 0.49 ng/mL

COc1cc2c3c(c4ccc(OC(=O)c5ccncc5)cc4c2cc1OC)[C@H](O)[C@@H]1CCCN1C3.Cl [Compound 12, isonicotinic acid(12aS,13S)-13-hydroxy-6,7-dimethoxy-9,10,11,12,12a,13-hexahydro-9a-aza-cyclopenta[b]triphenylene-3-yl ester hydrochloride]
A549 proliferation inhibitory action IC50 [1]: 0.19 ng/mL
SW480 proliferation inhibitory action IC50 [2]: 0.51 ng/mL
HT-29 proliferation inhibitory action IC50 [3]: 0.62 ng/mL
SV40 promoter inhibitory activity IC50 (SV40 promoter): >100 ng/mL
NFκB inhibitory activity IC50 (NFκB): 0.33 ng/mL

COc1cc2c3c(c4ccc(OC(=O)c5ccco5)cc4c2cc1OC)C[C@@H]1CCCN1C3.CS(=O)(=O)O [Compound 52, furan-2-carboxylic acid(S)-6,7-dimethoxy-9,10,11,12,12a,13-hexahydro-9a-aza-cyclopenta[b]triphenylene-3-yl ester methanesulfonate]
A549 proliferation inhibitory action IC50 [1]: 1.3 ng/mL
SW480 proliferation inhibitory action IC50 [2]: 0.51 ng/mL
HT-29 proliferation inhibitory action IC50 [3]: 2.0 ng/mL
SV40 promoter inhibitory activity IC50 (SV40 promoter): >1000 ng/mL
NFκB inhibitory activity IC50 (NFκB): 0.61 ng/mL
